Experimental data reported in US20220241314A1, “COMPOSITIONS AND METHODS FOR TREATMENT OF HEPATITIS B VIRUS INFECTION” (priority 2019, published 2022).
{ppp} = triphosphate

B1: poly-U/UC PAMP: ~100 nt PAMP motif from the HCV genome comprising 5′ppp and the poly U/UC region, recognized by RIG-I; formulated in liposome (nucleic acid)
chain: GGCCAUCCUGUUUUUUUCCCUUUUUUUUUUUCUUUUUUUUUUUUUUUUUUUUUUUUUUUUUUUUUUCUCCUUUUUUUUUCCUCUUUUUUUCCUUUUCUUUCCUUU
modifications: RNA, 5' {ppp}, backbone and methylation of C not given here; formulated in liposome
notes: ~100 nt PAMP motif from the HCV genome comprising 5′ppp and the poly U/UC region, recognized by RIG-I; formulated in liposome

Key:
HBV cccDNA = test: Time-of-addition experiments on cccDNA synthesis; assay type: cell-based, HBV (Genotype D); conditions: for HBV cccDNA level: HepG2-hNTCP and dHepaRG
Procedure: FIGS. 3A-3F illustrate that F7 and poly-U/UC PAMP suppress de novo HBV cccDNA synthesis. (3A) Upper: Infection and poly-U/UC PAMP treatment schedule. Cells were treated with 100 ng/ml of poly-U/UC PAMP either for 24 hours before (Pre), for 48 hours after HBV infection (Post), or for 72 hours (pre/post). At 3 dpi cells were harvested and Hirt extracts were prepared (3B) HepG2-hNTCP cells and (3C) dHepaRG cells were analyzed by Southern blot (upper) and RT-qPCR (lower). For RT-qPCR. anal sis, values from DMSO treated control were set to 100% respectively, and data are shown as mean±standard deviations (SD) percentage of cccDNA in control samples. ***P<0.005, and ns=non-significant. (3D) HBV infection and F7 treatment schedule. Cells were treated with F7 (10 μM) either for 24 hours before (Pre), 24 hours during the time of infection (Co), d8 hours after infection (Post), or 96 hours pre/co/post). At 3 Dpi, the cells were harvested and. Hirt extracts prepared HepG2-hNTCP (3E) and dHepaRG cells (3F). Upper panels show Southern blot analysis. Lower panels show or RT-qPCR analysis and percent of cccDNA remaining in treated cells compared to control DMS)-treated cells. Values from DMSO-treated control cultures were set to 100%. Data was presented as mean±standard deviations (SD), *P<0.01, **P<0.005, ***P<0.001, ****P<0.0001 and ns=non-significant. CsA served as a treatment control. For Southern blots the position of mass markers are indicated.
To further define inhibitory effect of F7 and poly-U/UC on cccDNA biosynthesis, time-of-addition experiments were conducted in HepG2-hNTCP and dHepaRG cells. For poly-U/UC PAMP, treatment for 24 hours pre-infection (pre-treatment), from 1 to 3 dpi (post-treatment), and from 24 hours pre-infection onward through 3 dpi (pre/post-treatment) were conducted (FIG. 3A). […]

RIG-I = test: IRF3 activation in RIG-I or MDA5 knockout HepG2-hNTCP cells (immunoblot); assay type: cell-based, human; conditions: 24 hours
Procedure: FIGS. 6A-6D illustrate that F7 and poly-U/UC PAMP specifically signal IRF3 activation through RIG-I to suppress HBV cccDNA. (6A) F7 was administered for 24 hours to HepG2-hNTCP-NT (expressing non-targeting guide RNA), RKO (RIG-I knockout expressing RIG-I-targeting guide RNA), and MKO (MDA5-knock out expressing MDA5-targeting guide RNA). Cells were harvested and analyzed by immunoblot. The levels of protein expression by p-IRF3 (S386 phosphorylated, active IRF3), IRF3 (total IRF), IFIT1, RIG-I, and MDA5 relative to the expression level of tubulin were determined using respective antibodies. (6B) HepG2-hNTCP-NT, RKO, and MKO cells were treated with 100 ng,/ml of X-RNA or 100 ng/ml or 200 ng/ml of poly-U/UC PAMP for 24 hr. Cells were harvested and analyzed by immunoblot as in (6A). (6C and 6D) Cells were infected with HBV at moi of 1000 Geq/cell. After 24 hour cultures were treated with DMSO (−; negative control), CsA (treatment control), (6C) 10 μM) or F7 or (6D) X RNA or poly-U/UC PAMP. Three days later the cells were harvested, Hirt extracts prepared and subjected to Southern blot analysis using as HBV-DNA probe. The positions of mass markers are indicated. Values beneath each lane show percent cccDNA remaining compared to control treatment.
In order to ascertain whether the activation of IRF3 and suppression of cccDNA in HBV-infected cells by F7 or poly-U/UC PAMP treatment was dependent on RIG-I rather than occurring as an off-target effect of IRF3 agonist treatment, HepG2-hNTCP cells expressing non-targeting guide RNA (HepG2-hNTCP-NT), or guide RNA for knockout (KO) of RIG-I expression (HepG2-hNTCP-RKO) or MDA5 (HepG2-hNTCP-MKO) were produced using CRISPR/Cas9 genome editing technology. […] Next, each cell population was infected with HBV followed by a single treatment with F7 or poly-U/UC PAMP at 1 dpi. Cells were harvested at 3 dpi for Southern blot analysis of cccDNA levels. Parallel cultures of each cell population were treated with DMSO or single dose X-RNA (negative control) or with CsA as a treatment control. […]

[1] = HepG2-hNTCP-RKO (RIG-I knockout) cells

| Molecule | HBV cccDNA level (HBV cccDNA; F7 10 μM administered once pre or co-treatment, 3 dpi) | HBV cccDNA level (HBV cccDNA; F7 10 μM administered post-infection or pre/co/post through 3 dpi) | phosphorylated/activated IRF3 and IFIT1 expression (RIG-I; HepG2-hNTCP-NT control and HepG2-hNTCP-MKO (MDA5 knockout) cells) | phosphorylated/activated IRF3 and IFIT1 expression (RIG-I; [1]) | synthesis of cccDNA (HBV cccDNA; poly-U/UC PAMP 100 ng/ml pre-, post- and pre/post-treatment, HepG2-hNTCP and HepaRG cells, 3 dpi) |
| --- | --- | --- | --- | --- | --- |
| O=C(Nc1ccc2nc(NC(=O)c3ccc4ccccc4c3)sc2c1)c1ccccc1 [F7, N-(6-benzamido-1,3-benzothiazol-2-yl)naphthalene-2-carboxamide] | little effect on HBV cccDNA level | significant suppression of cccDNA levels | fully respond to F7 | do not respond to treatment | – |
| B1 | – | – | – | do not respond to treatment | uniformly significantly suppressed |
